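Grown in 96-well plates, cells were treated for 48 hours with each compound at five concentrations. Insufficient inhibition: endpoint recorded as highest concentration tested. GI50 = concentration required for 50% inhibition of growth. TGI: total growth inhibition.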
What was measured:
Assay in all cases: NCI-60 cell line screen, 48 h
[1] = system: T-47D breast
[2] = system: SNB-19 CNS
[3] = system: SNB-75 CNS
[4] = system: DU-145 prostate
[5] = system: SR leukemia
[6] = system: OVCAR-3 ovarian
[7] = system: CAKI-1 renal
[8] = system: A549 NSCLC
[9] = system: IGROV1 ovarian
[10] = system: NCI-H23 lung
[11] = system: MDA-MB-231 breast
[12] = system: UO-31 renal
[13] = system: HT29 colon
[14] = system: OVCAR-5 ovarian
[15] = system: SN12C renal
[16] = system: SK-MEL-2 melanoma
[17] = system: HS 578T breast
[18] = system: ACHN renal
[19] = system: SK-MEL-28 melanoma
[20] = system: SF-539 CNS
[21] = system: COLO 205 colon
[22] = system: SK-OV-3 ovarian
[23] = system: NCI-H522 lung
[24] = system: K-562 leukemia
[25] = system: SF-295 CNS
[26] = system: EKVX NSCLC
[27] = system: A498 renal
[28] = system: 786-0 renal
[29] = system: HCC-2998 colon
[30] = system: BT-549 breast
[31] = system: SK-MEL-5 melanoma
[32] = system: PC-3 prostate
[33] = system: RPMI-8226 leukemia
[34] = system: MDA-MB-435
[35] = system: RXF 393 renal
[36] = system: LOX IMVI melanoma
[37] = system: M14 melanoma
[38] = system: TK-10 renal
[39] = system: KM12 colon
[40] = system: OVCAR-8 ovarian
[41] = system: MCF7 breast
[42] = system: CCRF-CEM leukemia
[43] = system: UACC-62 melanoma
[44] = system: UACC-257 melanoma
[45] = system: MOLT-4 leukemia
[46] = system: HOP-62 NSCLC
[47] = system: HCT-15 colon
[48] = system: HL-60(TB) leukemia

For `CCCCCCN1C(=O)/C(=c2\sc3n(c2=O)C2C(NN=3)N(CC)C(=O)N2CC)c2ccccc21` (stereo unspecified), the GI50 [1] was 1.66 µM, the TGI [1] was > 50 µM and the GI50 [2] was 3.03 µM. The TGI [2] was > 50 µM, the GI50 [3] was 0.762 µM and the TGI [3] was 2.31 µM. The GI50 [4] was 2.52 µM, the TGI [4] was > 50 µM and the GI50 [5] was 1.73 µM. The TGI [5] was > 50 µM, the GI50 [6] was 0.966 µM and the TGI [6] was 2.06 µM. For the same compound, the GI50 [7] was 1.82 µM, the TGI [7] was > 50 µM and the GI50 [8] was 1.47 µM. For the same compound, the TGI [8] was > 50 µM, the GI50 [9] was 1.63 µM and the TGI [9] was > 50 µM. The GI50 [10] was 2.05 µM, the TGI [10] was > 50 µM and the GI50 [11] was 1.77 µM. For the same compound, the TGI [11] was 10.4 µM, the GI50 [12] was 1.43 µM and the TGI [12] was > 50 µM. For the same compound, the GI50 [13] was 1.5 µM, the TGI [13] was > 50 µM and the GI50 [14] was 2.03 µM. The TGI [14] was > 50 µM, the GI50 [15] was 2.74 µM and the TGI [15] was > 50 µM. For the same compound, the GI50 [16] was 3.06 µM, the TGI [16] was > 50 µM and the GI50 [17] was 1.12 µM. For the same compound, the TGI [17] was 3.28 µM, the GI50 [18] was 1.51 µM and the TGI [18] was > 50 µM. For the same compound, the GI50 [19] was 2.09 µM, the TGI [19] was > 50 µM and the GI50 [20] was 0.831 µM. The TGI [20] was 1.59 µM, the GI50 [21] was 2.21 µM and the TGI [21] was 38.3 µM. For the same compound, the GI50 [22] was 2.67 µM, the TGI [22] was > 50 µM and the GI50 [23] was 1.45 µM. The TGI [23] was > 50 µM, the GI50 [24] was 1.89 µM and the TGI [24] was > 50 µM. For the same compound, the GI50 [25] was 1.45 µM, the TGI [25] was > 50 µM and the GI50 [26] was 2.84 µM. The TGI [26] was > 50 µM, the GI50 [27] was 0.706 µM and the TGI [27] was 2.37 µM. The GI50 [28] was 1.6 µM, the TGI [28] was > 50 µM and the GI50 [29] was 5.83 µM. The TGI [29] was > 50 µM, the GI50 [30] was 6.34 µM and the TGI [30] was > 50 µM. The GI50 [31] was 3.48 µM, the TGI [31] was > 50 µM and the GI50 [32] was 2.48 µM. The TGI [32] was > 50 µM, the GI50 [33] was 2.57 µM and the TGI [33] was > 50 µM. The GI50 [34] was 0.972 µM, the TGI [34] was 2.16 µM and the GI50 [35] was 1.2 µM. For the same compound, the TGI [35] was 3.98 µM, the GI50 [36] was 1.53 µM and the TGI [36] was > 50 µM. For the same compound, the GI50 [37] was 3.24 µM, the TGI [37] was > 50 µM and the GI50 [38] was 1.72 µM. The TGI [38] was > 50 µM, the GI50 [39] was 1.46 µM and the TGI [39] was > 50 µM. For the same compound, the GI50 [40] was 1.47 µM, the TGI [40] was > 50 µM and the GI50 [41] was 1.73 µM. The TGI [41] was > 50 µM, the GI50 [42] was 2.5 µM and the TGI [42] was > 50 µM. The GI50 [43] was 2.89 µM, the TGI [43] was > 50 µM and the GI50 [44] was 3.09 µM. The TGI [44] was > 50 µM, the GI50 [45] was 3.96 µM and the TGI [45] was > 50 µM. The GI50 [46] was 1.71 µM, the TGI [46] was > 50 µM and the GI50 [47] was 1.62 µM. For the same compound, the TGI [47] was > 50 µM, the GI50 [48] was 1.96 µM and the TGI [48] was 43.9 µM.
